Data from patent US11904052B2, “Methods for ameliorating infusion reactions” (ARBUTUS BIOPHARMA CORPORATION, priority 2016, dated 2024).
Entries after “also recorded” stand apart in the source; their conditions may differ.

Experiments:
[1] = tested on: thromboxane B2; assay: Plasma thromboxane B2 after LNP2 infusion in the conscious minipig; format: in vivo, Gottingen minipigs; conditions: iv bolus 10 minutes prior to LNP2 infusion; ketorolac 1 mg/kg, dexamethasone 0.3 mg/kg
Description: (§1) Four (4) treatment naïve female Gottingen minipigs (Marshall Farms, N.Y.) were surgically implanted with a D70-PCT PhysioTel implantable radiotelemetry transmitter (Data Sciences International, St. Paul, Minn.) to allow for the measurement of physical activity, body temperature, ECG, heart rate, and arterial blood pressure. The pigs were allowed to recover from surgery for at least 7 days prior to use in the study.
(§2) Following surgical recovery, the same four pigs (15-20 kg) received a 60-minute intravenous infusion of vehicle (0.9% saline), LNP2, LNP2+ketorolac, or LNP2+dexamethasone as outlined in the Table 1. Each treatment cohort was separated by a 7-day washout period.
(§3) Just prior to each infusion and at approximately 1, 3, 6 and 24 hours after the start of each infusion, a mixed venous blood sample was taken, processed to plasma, stored frozen, and used for subsequent analysis of thromboxane B2 (11-dehydrothromboxane B2). Heart rate and arterial blood pressure was continuously recorded from 30 minutes prior to each infusion to 24 hours after the start of each infusion.

[2] = tested on: conscious minipig; assay: Mean arterial blood pressure by radiotelemetry after LNP2 infusion in the conscious minipig; format: in vivo, Gottingen minipigs; conditions: iv bolus 10 minutes prior to LNP2 infusion; ketorolac 1 mg/kg, dexamethasone 0.3 mg/kg
Description: as §1, §2, §3

Question: For `O=C(c1ccccc1)c1ccc2n1CCC2C(=O)O` (stereo not drawn) [ketorolac], which “effect on the LNP2-induced increase in thromboxane B2” value [1] is on record?
Answer: mitigated completely

Question: What about the “effect on the acute infusion reaction to LNP2 (increase in blood pressure)” value [2] of the same molecule?
Answer: completely prevented

Question: What about the “effect on the delayed hypotension after LNP2 infusion” value [2] of the same molecule?
Answer: prevented; also recorded: effectively mitigated
